From patent US10548865B1, “Compositions of citrulline” (Hubei Grand Biotechnology Co. Ltd., priority 2019, dated 2020)

Test system: mice
Experiment: Loaded swimming test, exercise time to exhaustion
Format: in vivo
Settings: intragastric, 1 hour prior to test
Procedure: Adult (8-10 weeks) male ICR mice were used in this study and purchased from Beijing Vital River Laboratory Animal Technology Co., Ltd. All the mice were provided with a normal diet and water ad libitum. All procedures were approved by institutional guidelines and the Animal Care and Use Committee (Huazhong University of Science and Technology, Wuhan, China) of the university's animal core facility. The mice were group-housed under a 12 h light-dark cycle (lights on at 8:00 a.m.), at consistent humidity (50±5%), and ambient temperature (22˜24° C.).
The animals were bred with three mice per cage in the laboratory, and were acclimatized for 1 week before the experiments. The mice were grouped randomly for each experiment. The mice in each group were given the corresponding dose amino acid and the control group was treated with the equal volume of normal saline (NS) through intragastric administration. Loaded swimming experiments were performed to assess the acute effect of the amino acids on endurance one hour after the treatment
The NS injection were purchased from Beijing Pharmaceutical Group Co., Ltd. The amino acid powders were dissolved in NS and then were intragastric administration to mice by lavage needle (Beijing Vital River Laboratory Animal Technology Co., Ltd.).
Acute effects on endurance performance were assessed by loaded swimming test one hour after the amino acid treatment. The swimming exercise was carried out in a tank (diameter 120 cm) filled with fresh water to 30-cm depth at 24±2° C. A tin wire (⅛ of body weight) was attached on the tail of the mouse. […] The length of time each mouse kept swimming before exhaustion (exercise time to exhaustion) was recorded. At the end of the session, the mice were removed from the water, dried with paper towels, and placed back in their home cages.
Sixty mice were randomly divided into four groups (n=15 per group). Each of the four group were treated with NS, citrulline (200 mg/kg body weight), GABA (150 mg/kg body weight), and citrulline/GABA mixture (200 mg/kg+150 mg/kg) respectively. The results were summarized below (Table 2 and FIG. 1).
The methods used here are the same as in Example 1, but GABA (150 mg/kg) was replaced by taurine (200 mg/kg). The results were summarized below (Table 3 and FIG. 2).
The methods used here are the same as in Example 1. Sixty mice were randomly divided into four groups (n=15 per group). Each of the four group were treated with NS, citrulline (75 mg/kg body weight), taurine (25 mg/kg body weight), and citrulline taurine mixture (75 mg/kg+25 mg/kg) respectively. The results were summarized below (Table 4 and FIG. 3).

[1] = Example 1, citrulline 200 mg/kg, GABA 150 mg/kg, mixture 200 mg/kg+150 mg/kg, male ICR mice
[2] = Example 2, citrulline 200 mg/kg, taurine 200 mg/kg, mixture 200 mg/kg+200 mg/kg
[3] = Example 3, lower doses, citrulline 75 mg/kg, taurine 25 mg/kg, mixture 75 mg/kg+25 mg/kg

## NC(=O)NCCC[C@H](N)C(=O)O [Citrulline, L-citrulline]
[1]
  Average Time (s), exercise time to exhaustion: 245.4 s
Example 1, citrulline 200 mg/kg, GABA 150 mg/kg, mixture 200 mg/kg+150 mg/kg, male ICR mice, listed as citrulline
  Average Time (s), exercise time to exhaustion: about 245.4 s
[2]
  Average Time (s), exercise time to exhaustion: 194.6 s
  Increase of exercise time to exhaustion vs control: 15.6%
Example 2, citrulline 200 mg/kg, taurine 200 mg/kg, mixture 200 mg/kg+200 mg/kg, listed as citrulline
  Increase of exercise time to exhaustion vs control: 15.6%
[3]
  Average Time (s), exercise time to exhaustion: 207.7 s
  Increase of exercise time to exhaustion vs control: 23.4%
Example 3, lower doses, citrulline 75 mg/kg, taurine 25 mg/kg, mixture 75 mg/kg+25 mg/kg, listed as citrulline
  Increase of exercise time to exhaustion vs control: 23.4%

## NCCCC(=O)O [GABA, gamma-aminobutyric acid, reference compound]
[1]
  Average Time (s), exercise time to exhaustion: 216.8 s

## NCCS(=O)(=O)O [Taurine, taurine]
[2]
  Average Time (s), exercise time to exhaustion: 208 s
  Increase of exercise time to exhaustion vs control: 23.6%
Example 2, citrulline 200 mg/kg, taurine 200 mg/kg, mixture 200 mg/kg+200 mg/kg, listed as taurine
  Increase of exercise time to exhaustion vs control: 23.6%
[3]
  Average Time (s), exercise time to exhaustion: 181 s
  Increase of exercise time to exhaustion vs control: 7.5%
Example 3, lower doses, citrulline 75 mg/kg, taurine 25 mg/kg, mixture 75 mg/kg+25 mg/kg, listed as taurine
  Increase of exercise time to exhaustion vs control: 7.5%
